From US12467917B2, “Reconstructing human early embryogenesis in vitro with pluripotent stem cells” (California Institute of Technology, priority 2021, dated 2025)

How the values were obtained:
Assay type in all cases: cell-based, human
hEPSC aggregates = experiment: PLC inhibition in hEPSC 3D cultures: immunofluorescence quantification of nuclear GATA3 and apical PARD6; details: hEPSC 3D cultures treated with 2 μM and 3 μM, vs control without inhibitor
Experimental: The PLC-Protein Kinase C (PKC) pathway controls cellular polarisation at early stages of mouse embryo development. hEPSC 3D cultures were treated with 2 μM and 3 μM of the PLC inhibitor, U73122. […] To confirm the relationship between polarisation and outer cell commitment, siRNA transfection was used to knockdown (KD) PLCB1 in order to deplete PLC activity in cells during 3D aggregation (FIG. 2F). The depletion of PLC activity was confirmed by qRT-PCR to confirm that RNAi depletion of PLCB1 was effective (FIG. 8C).
Post incubation on gelatin plates, cells were counted using a haemocytometer and a total of 7200 hEPSCs was added to 1 mL of media composed of 50% IVF media (Continuous Single Culture-NX Complete (CSCM-NXC)) (90168, FUJIFILM), 25% hEP media, and 25% hTS media. This media was also supplemented with CHIR99021 (2 μM), Y27632 (5 μM), BMP4 (20 ng/mL), FGF2 (40 ng/mL), and A83-01 (2 μM). […]
Fluorescence images were acquired with an inverted Leica SP8 confocal microscope (Leica Microsystems), using a Leica Fluotar VISIR 0.95 NA 25× objective. […] Digital quantifications and immunofluorescence signal intensity graphs were obtained using Fiji software.
Apical enrichment analysis: F-actin and PARD6 polarisation were measured in a single focal plane, by taking the middle plane of the aggregate. […] The apical/basal signal intensity ratio was calculated as: I (apical)/I (basal). […]

hEPSCs = experiment: Screening of growth factors and inhibitors in hEPSC 3D culture; details: grown for 5 days without the named substance (condition 2 / condition 3)
Experimental: Next, various growth factors, cytokines, and small molecules were screened at widely adopted concentrations, to identify conditions facilitating cavity and early-lineage formation in these structures (FIG. 7A-FIG. 7E). […] Additionally, the cells were pulsed with the ALK5 kinase inhibitor A83-01 (2 μM) to promote TE differentiation for the first 48h of 3D culture, and this inhibitor was removed after this time to avoid a complete loss in pluripotency. Concomitantly, the concentration of FGF2 was decreased by half (20 ng/ml) for the same purpose. Using this optimized condition, the emergence of cavitated structures was observed, 3 to 4 days after cell seeding (FIG. 1D).
Post incubation on gelatin plates, cells were counted using a haemocytometer and a total of 7200 hEPSCs was added to 1 mL of media composed of 50% IVF media (Continuous Single Culture-NX Complete (CSCM-NXC)) (90168, FUJIFILM), 25% hEP media, and 25% hTS media. This media was also supplemented with CHIR99021 (2 μM), Y27632 (5 μM), BMP4 (20 ng/mL), FGF2 (40 ng/mL), and A83-01 (2 μM). Cell suspensions were added dropwise to the Aggrewells. All wells without cells were filled with 1 mL PBS to humidify the local atmosphere to minimize evaporation. The AggreWell plate (24-well, 1200 Aggrewell format) was then centrifuged for 3 min at 100 g, and placed at 37° C. under hypoxic conditions (5% CO2 and 5% O2). […]

hEP-structures = experiment: Frequency of cavitated structures in WNT3A-supplemented 3D culture; details: day 6; WNT3A at 25 or 50 ng/mL added to culture media; vs control
Experimental: Post incubation on gelatin plates, cells were counted using a haemocytometer and a total of 7200 hEPSCs was added to 1 mL of media composed of 50% IVF media (Continuous Single Culture-NX Complete (CSCM-NXC)) (90168, FUJIFILM), 25% hEP media, and 25% hTS media. This media was also supplemented with CHIR99021 (2 μM), Y27632 (5 μM), BMP4 (20 ng/mL), FGF2 (40 ng/mL), and A83-01 (2 μM). Cell suspensions were added dropwise to the Aggrewells. All wells without cells were filled with 1 mL PBS to humidify the local atmosphere to minimize evaporation. The AggreWell plate (24-well, 1200 Aggrewell format) was then centrifuged for 3 min at 100 g, and placed at 37° C. under hypoxic conditions (5% CO2 and 5% O2). After 48h, media was removed from wells and replaced with fresh culture media as described above, although FGF2 concentration was lowered to 20 ng/ml and A83-01 was omitted. Cells were left to grow for an additional 48-72h until proper morphology was observed, at which point structures were fixed for immunostaining or transferred to IVC media (see below) for mimicking development beyond implantation stages.
Following completion of any given aggregation experiment (from day 4 to 6), all cystic structures clearly displaying a cavity were included in further analyses. Non-cavitated structures were excluded from downstream analyses.

Molecule: COc1ccc2c(c1)CC[C@@H]1[C@@H]2CC[C@]2(C)[C@@H](NCCCCCCN3C(=O)C=CC3=O)CC[C@@H]12 [U73122]
- nuclear GATA3 signal intensity (hEPSC aggregates; normalized to DAPI): reduction
- apical enrichment of PARD6 (hEPSC aggregates): decrease

Molecule: C[C@@H](N)[C@H]1CC[C@H](C(=O)Nc2ccncc2)CC1.Cl.Cl [Y-27632, trans-4-[(R)-1-Aminoethyl]-N-4-pyridinylcyclohexanecarboxamide dihydrochloride]
- cell survival in media without the substance (hEPSCs): failure of cell survival

Molecule: Cc1c[nH]c(-c2cnc(NCCNc3ccc(C#N)cn3)nc2-c2ccc(Cl)cc2Cl)n1 [CHIR99021]
- cell survival in media without the substance (hEPSCs): failure of cell survival

B1: WNT3A: Wnt3a recombinant protein, WNT signaling pathway activator added to the culture media (protein, UniProt P56704 19-352, looked up)
Protein Wnt-3a: SYPIWWSLAVGPQYSSLGSQPILCASIPGLVPKQLRFCRNYVEIMPSVAEGIKIGIQECQHQFRGRRWNCTTVHDSLAIFGPVLDKATRESAFVHAIASAGVAFAVTRSCAEGTAAICGCSSRHQGSPGKGWKWGGCSEDIEFGGMVSREFADARENRPDARSAMNRHNNEAGRQAIASHMHLKCKCHGLSGSCEVKTCWWSQPDFRAIGDFLKDKYDSASEMVVEKHRESRGWVETLRPRYTYFKVPTERDLVYYEASPNFCEPNPETGSFGTRDRTCNVSSHGIDGCDLLCCGRGHNARAERRREKCRCVFHWCCYVSCQECTRVYDVHTCK
- yield (frequency) of cavitated structures (hEP-structures): did not make any significant difference
